Columns and labels:
[1] = The drug is tested on Subdoligranulum variabile strain: DSM15176 for biotransformation. The drug concentrations were measured before and after a 12-h incubation by liquid-chromatography-coupled mass spectrometry (LC–MS); conditions: 2 µM
[2] = The drug is tested on Coprococcus comes strain: ATCC27758 for biotransformation. The drug concentrations were measured before and after a 12-h incubation by liquid-chromatography-coupled mass spectrometry (LC–MS); format: ADME; design: dose 2 uM, timepoint 0 vs 12 hours; conditions: 2 µM
[3] = The drug is tested on Collinsella aerofaciens strain: ATCC25986 for biotransformation. The drug concentrations were measured before and after a 12-h incubation by liquid-chromatography-coupled mass spectrometry (LC–MS); conditions: 2 µM
[4] = The drug is tested on Eubacterium rectale strain: ATCC33656 for biotransformation. The drug concentrations were measured before and after a 12-h incubation by liquid-chromatography-coupled mass spectrometry (LC–MS); conditions: agathobacter rectalis, 2 µM
[5] = The drug is tested on Eubacterium hallii strain: DSM3353 for biotransformation. The drug concentrations were measured before and after a 12-h incubation by liquid-chromatography-coupled mass spectrometry (LC–MS); conditions: anaerobutyricum hallii, 2 µM
[6] = The drug is tested on Bacteroides fragilis strain: HMW610 for biotransformation. The drug concentrations were measured before and after a 12-h incubation by liquid-chromatography-coupled mass spectrometry (LC–MS); conditions: 2 µM
[7] = The drug is tested on Collinsella intestinalis strain: DSM13280 for biotransformation. The drug concentrations were measured before and after a 12-h incubation by liquid-chromatography-coupled mass spectrometry (LC–MS); conditions: 2 µM
[8] = The drug is tested on Odoribacter splanchnicus strain: fecal isolate for biotransformation. The drug concentrations were measured before and after a 12-h incubation by liquid-chromatography-coupled mass spectrometry (LC–MS); conditions: 2 µM
[9] = The drug is tested on Bacteroides pectinophilus strain: ATCC43243 for biotransformation. The drug concentrations were measured before and after a 12-h incubation by liquid-chromatography-coupled mass spectrometry (LC–MS); conditions: 2 µM
[10] = The drug is tested on Bacteroides dorei strain: DSM17855 for biotransformation. The drug concentrations were measured before and after a 12-h incubation by liquid-chromatography-coupled mass spectrometry (LC–MS); conditions: phocaeicola dorei, 2 µM
[11] = The drug is tested on Blautia hansenii strain: DSM20583 for biotransformation. The drug concentrations were measured before and after a 12-h incubation by liquid-chromatography-coupled mass spectrometry (LC–MS); conditions: 2 µM
[12] = segatella copri, 12 h, 2 µM
Description: The drug is tested on Prevotella copri strain: DSM18205 for biotransformation. The drug concentrations were measured before and after a 12-h incubation by liquid-chromatography-coupled mass spectrometry (LC–MS)

[13] = The drug is tested on Eubacterium ventriosum strain: ATCC27560 for biotransformation. The drug concentrations were measured before and after a 12-h incubation by liquid-chromatography-coupled mass spectrometry (LC–MS); format: ADME; design: dose 2 uM, timepoint 0 vs 12 hours; conditions: 2 µM
[14] = The drug is tested on Enterococcus faecalis strain: V583 for biotransformation. The drug concentrations were measured before and after a 12-h incubation by liquid-chromatography-coupled mass spectrometry (LC–MS); conditions: 2 µM
[15] = The drug is tested on Ruminococcus lactaris strain: ATCC29176 for biotransformation. The drug concentrations were measured before and after a 12-h incubation by liquid-chromatography-coupled mass spectrometry (LC–MS); conditions: 2 µM
[16] = The drug is tested on Escherichia coli strain: BW25113 for biotransformation. The drug concentrations were measured before and after a 12-h incubation by liquid-chromatography-coupled mass spectrometry (LC–MS); conditions: 2 µM
[17] = enterocloster bolteae, 12 h, 2 µM
Description: The drug is tested on Clostridium bolteae strain: ATCCBAA-613 for biotransformation. The drug concentrations were measured before and after a 12-h incubation by liquid-chromatography-coupled mass spectrometry (LC–MS)

[18] = The drug is tested on Bacteroides fragilis strain: ATCC43859 for biotransformation. The drug concentrations were measured before and after a 12-h incubation by liquid-chromatography-coupled mass spectrometry (LC–MS); conditions: 2 µM
[19] = The drug is tested on Clostridium scindens strain: ATCC35704 for biotransformation. The drug concentrations were measured before and after a 12-h incubation by liquid-chromatography-coupled mass spectrometry (LC–MS); conditions: 2 µM

SMILES | Bacterial Biotransformation [1] | Bacterial Biotransformation [2] | Bacterial Biotransformation [3] | Bacterial Biotransformation [4] | Bacterial Biotransformation [5] | Bacterial Biotransformation [6] | Bacterial Biotransformation [7] | Bacterial Biotransformation [8] | Bacterial Biotransformation [9] | Bacterial Biotransformation [10] | Bacterial Biotransformation [11] | Bacterial Biotransformation [12] | Bacterial Biotransformation [13] | Bacterial Biotransformation [14] | Bacterial Biotransformation [15] | Bacterial Biotransformation [16] | Bacterial Biotransformation [17] | Bacterial Biotransformation [18] | Bacterial Biotransformation [19]
CN1[C@@H]2CC[C@H]1C[C@@H](OC(=O)C(CO)c1ccccc1)C2 (stereo partly specified) [ATROPINE] | Compound NOT metabolized | Compound NOT metabolized | Compound NOT metabolized | Compound NOT metabolized | Compound NOT metabolized | Compound NOT metabolized | Compound NOT metabolized | Compound NOT metabolized | Compound NOT metabolized | Compound NOT metabolized | Compound NOT metabolized | Compound NOT metabolized | Compound NOT metabolized |  |  |  |  |  | 
CN(C)CC(c1ccc(O)cc1)C1(O)CCCCC1.O=C(O)CCC(=O)O (stereo unspecified) [DESVENLAFAXINE SUCCINATE] | Compound NOT metabolized | Compound NOT metabolized | Compound NOT metabolized |  | Compound NOT metabolized | Compound NOT metabolized | Compound NOT metabolized | Compound NOT metabolized | Compound NOT metabolized | Compound NOT metabolized |  | Compound NOT metabolized | Compound NOT metabolized | Compound NOT metabolized | Compound NOT metabolized | Compound NOT metabolized | Compound NOT metabolized | Compound NOT metabolized | Compound NOT metabolized
O=C(CCCN1CCC(O)(c2ccc(Cl)cc2)CC1)c1ccc(F)cc1 [HALOPERIDOL] | Compound NOT metabolized | Compound NOT metabolized | Compound NOT metabolized | Compound NOT metabolized | Compound NOT metabolized | Compound NOT metabolized | Compound NOT metabolized | Compound NOT metabolized | Compound NOT metabolized | Compound NOT metabolized |  | Compound NOT metabolized | Compound NOT metabolized | Compound NOT metabolized | Compound NOT metabolized | Compound NOT metabolized | Compound NOT metabolized | Compound NOT metabolized | Compound NOT metabolized
COC(=O)C1=C(C)NC(C)=C(C(=O)OC(C)C)C1c1cccc2nonc12 (stereo unspecified) [ISRADIPINE] | Compound NOT metabolized | Compound NOT metabolized | Compound NOT metabolized |  | Compound NOT metabolized | Compound NOT metabolized | Compound NOT metabolized | Compound NOT metabolized | Compound NOT metabolized | Compound NOT metabolized | Compound NOT metabolized | Compound NOT metabolized | Compound NOT metabolized | Compound NOT metabolized | Compound NOT metabolized | Compound NOT metabolized | Compound NOT metabolized | Compound NOT metabolized | Compound NOT metabolized
CN1CCC(=C2c3ccccc3CC(=O)c3sccc32)CC1.O=C(O)/C=C/C(=O)O [KETOTIFEN FUMARATE] | Compound NOT metabolized | Compound NOT metabolized | Compound NOT metabolized | Compound NOT metabolized | Compound NOT metabolized | Compound NOT metabolized | Compound NOT metabolized | Compound NOT metabolized | Compound NOT metabolized | Compound NOT metabolized | Compound NOT metabolized | Compound NOT metabolized | Compound NOT metabolized | Compound NOT metabolized | Compound NOT metabolized |  |  | Compound NOT metabolized | Compound NOT metabolized
CN1CCOC(c2ccccc2)c2ccccc2C1 (stereo unspecified) [NEFOPAM] | Compound NOT metabolized | Compound NOT metabolized | Compound NOT metabolized | Compound NOT metabolized | Compound NOT metabolized | Compound NOT metabolized | Compound NOT metabolized |  | Compound NOT metabolized |  |  | Compound NOT metabolized | Compound NOT metabolized | Compound NOT metabolized | Compound NOT metabolized |  | Compound NOT metabolized | Compound NOT metabolized | Compound NOT metabolized
Cc1cc2c(s1)Nc1ccccc1N=C2N1CCN(C)CC1 [OLANZAPINE] | Compound NOT metabolized | Compound NOT metabolized | Compound NOT metabolized | Compound NOT metabolized | Compound NOT metabolized | Compound metabolized | Compound NOT metabolized | Compound metabolized | Compound NOT metabolized | Compound NOT metabolized |  | Compound NOT metabolized | Compound NOT metabolized | Compound NOT metabolized | Compound NOT metabolized | Compound NOT metabolized | Compound NOT metabolized |  | Compound NOT metabolized
COc1ccc(Cc2nccc3cc(OC)c(OC)cc23)cc1OC [PAPAVERINE] | Compound NOT metabolized | Compound NOT metabolized | Compound NOT metabolized | Compound NOT metabolized | Compound NOT metabolized |  | Compound NOT metabolized |  | Compound NOT metabolized | Compound metabolized |  | Compound NOT metabolized | Compound NOT metabolized | Compound NOT metabolized | Compound NOT metabolized | Compound NOT metabolized | Compound NOT metabolized | Compound NOT metabolized | Compound NOT metabolized
N#Cc1ccc2c(c1)N(CCCN1CCC(O)CC1)c1ccccc1S2 [PERICIAZINE] | Compound NOT metabolized | Compound NOT metabolized | Compound NOT metabolized | Compound NOT metabolized | Compound NOT metabolized | Compound metabolized | Compound NOT metabolized |  | Compound NOT metabolized | Compound metabolized |  | Compound NOT metabolized | Compound NOT metabolized | Compound NOT metabolized |  | Compound NOT metabolized | Compound NOT metabolized |  | Compound NOT metabolized

Reference: ChEMBL document CHEMBL5303573, “Mapping human microbiome drug metabolism by gut bacteria and their genes” (Nature, 2019)
